Entries after “also recorded” stand apart in the source; their conditions may differ. Counter-ions that a name gives are not always drawn. Values belong to the compound of their own block, whether it stands above or below them.
Legend:
[1] = tested on: CYP2A6 (tranylcypromine), CYP2E1 (diethyldithiocarbamate); CYP-mediated 5-FU formation from R-FT; test: Effects of CYP-selective inhibitors on 5-FU formation from FT enantiomers in pooled human hepatic microsomes; type: in vitro ADME; conditions: human, pooled human liver microsomes, pH 7.4, probe R-FT (R-tegafur) 30 μmol/L, 5-FU formation
Protocol: (§1) Metabolic reaction by S9 and cytosol (each 2 mg protein/mL) was carried out in 100 mmol/L phosphate (pH 7.4) because TPase requires phosphate ions for catalyzing the reaction. In some cases, insect microsomes expressing recombinant CYP isoforms (20 pmol/mL) were added to the incubation mixtures in either 50, 100 mmol/L phosphate (pH 7.4) or 100 mmol/L Tris (pH 7.4), depending on supplier's recommendation. Microsomal protein concentrations of all cDNA-expressed CYPs were adjusted to 0.5 mg protein/mL by adding control microsomes expressing NADPH-P450 oxidoreductase and cytochrome b5. The reaction for the assay of FT metabolism was initiated by adding the substrate, following preincubation for 5 min at 37°C. After incubation at 37°C, the reaction was stopped by adding three volumes of ice-cold acetonitrile. The incubation times of microsomes, cytosol, and S9 were 15, 15, and 30 min, respectively. After centrifugation, the supernatant was collected and stored at −80°C until the determination of 5-FU. Because a small portion of FT is nonenzymatically converted to 5-FU, the content of 5-FU spontaneously formed was subtracted from total yield obtained after incubation to correct the activity. The spontaneous degradation of FT to 5-FU was evaluated using enzymes inactivated by heating them at 100°C for 5 min.
(§2) The effects of inhibitors of CYP isoforms and TPase, and anti-CYP antibodies on 5-FU formation from FT enantiomers catalyzed by human hepatic preparations were evaluated. In inhibition assays, FT enantiomers were used at the concentrations of 30 μmol/L. 1-Aminobenzotriazole (1 mmol/L) and TPI (10 μmol/L) were used as nonselective inhibitors of CYP isoforms and TPase, respectively. […] Inhibitors were dissolved in methanol and diluted with 100 mmol/L phosphate (pH 7.4) or 100 mmol/L Tris (pH 7.4) so that the final concentration of solvent in the incubation mixture was 0.5%. Methanol was also added to the control at the same concentration as the conditions with inhibitors. Inhibitory effects of anti-CYP antibodies were examined by preincubating microsomes with the antibodies for 10 min on ice. Each polyclonal anti-CYP antibody was used at a concentration ranging 10–40 μL/mg microsomal protein according to the procedure recommended by the supplier. The reaction was performed similarly as described above, except for evaluating the inhibitory effect of furafylline.
(§3) Concentration of 5-FU was determined using a LC/MS/MS system. The analytical system consisted of a HP1100 liquid chromatograph (Agilent Technologies, CA) coupled with an API4000 triple-quadrupole mass spectrometer (Applied Biosystems, CA) equipped with Turbo V source and ESI interface. Sample separation was performed using an Unison UK-Amino column (2.0 mm i.d. × 100 mm, 3 μm; Imtakt, Kyoto, Japan) at a flow rate of 0.2 mL/min at 40°C. The mobile phase consisted of 10 mmol/L ammonium acetate/acetonitrile 10:90 (v/v). […] For quantification of 5-FU, the calibration curves were linear over the range 2–1000 ng/mL.
(§4) For evaluating the effect of furafylline, the preincubation of microsomes with an inhibitor and an NADPH-generating system for 20 min was performed, followed by the enantioselective metabolic reaction. Opened and closed bars represent 5-FU formation rate from R- and S-FT, respectively.

[2] = tested on: CYP2A6 (tranylcypromine), CYP2E1 (diethyldithiocarbamate); CYP-mediated 5-FU formation from S-FT; test: as above; type: in vitro ADME; conditions: human, pooled human liver microsomes, pH 7.4, probe S-FT (S-tegafur) 30 μmol/L, 5-FU formation
Protocol: as §1, §2, §3, §4

[3] = tested on: recombinant human CYP2B6, 2C8, 2C9, 2D6, and 3A4; test: 5-FU formation from FT enantiomers by other cDNA-expressed CYP isoforms; type: in vitro ADME; conditions: other isoforms than CYP1A2, 2A6, 2C19, 2E1; FT enantiomers 0.03 mmol/L; 20 pmol CYP/mL
Protocol: (pooled preparations from 20 donors; Kansas City, KS). […] Insect microsomes expressing only NADPH-P450 oxidoreductase and cytochrome b5 were also used as control. These enzymes were stored at −80°C until use.
5-FU formed from FT was subjected to extensive metabolism by dihydropyrimidine dehydrogenase (DPD) contaminating human hepatic preparations. Therefore, a potent DPD inhibitor, CDHP, was always added to avoid the unexpected loss of 5-FU (Ikeda et al. [2000]; Yamamiya et al. [2010]). Incubation mixture for hepatic microsomal metabolism contained FT, microsomes (1 mg protein/mL), 0.1 mmol/L CDHP, and an NADPH-generating system consisting of 1.3 mmol/L β-NADP^+, 3.3 mmol/L glucose-6-phosphate, 3.3 mmol/L magnesium chloride, and 0.4 units glucose-6-phosphate dehydrogenase in 100 mmol/L Tris (pH 7.4). Metabolic reaction by S9 and cytosol (each 2 mg protein/mL) was carried out in 100 mmol/L phosphate (pH 7.4) because TPase requires phosphate ions for catalyzing the reaction. […] The spontaneous degradation of FT to 5-FU was evaluated using enzymes inactivated by heating them at 100°C for 5 min.
(§5) Concentration of 5-FU was determined using a LC/MS/MS system. […] For quantification of 5-FU, the calibration curves were linear over the range 2–1000 ng/mL. […]

CYP2A6 = molecular target: T1, CYP2A6 (Homo sapiens, UniProt P11509); test: 5-FU formation from FT enantiomers by cDNA-expressed CYP2A6 (kinetics, velocity, RAF contribution); conditions: CYP2A6; RAF method; 30 μmol/L
T1 sequence (P11509 1-494): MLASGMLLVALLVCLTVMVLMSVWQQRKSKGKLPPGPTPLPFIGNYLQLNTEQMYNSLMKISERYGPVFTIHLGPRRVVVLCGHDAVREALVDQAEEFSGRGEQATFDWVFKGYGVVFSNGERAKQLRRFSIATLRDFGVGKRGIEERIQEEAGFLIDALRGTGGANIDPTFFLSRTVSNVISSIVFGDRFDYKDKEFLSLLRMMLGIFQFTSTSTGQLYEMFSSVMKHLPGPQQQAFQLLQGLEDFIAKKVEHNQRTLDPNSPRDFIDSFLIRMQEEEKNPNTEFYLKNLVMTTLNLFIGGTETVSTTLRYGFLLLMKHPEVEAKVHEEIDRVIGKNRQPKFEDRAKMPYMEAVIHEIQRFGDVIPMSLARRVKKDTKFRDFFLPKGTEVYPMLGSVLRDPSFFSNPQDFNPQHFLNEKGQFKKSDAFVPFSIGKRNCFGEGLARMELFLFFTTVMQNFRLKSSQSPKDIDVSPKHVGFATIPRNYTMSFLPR
From the text: Human hepatic 9000g supernatant (S9) and cytosolic fraction were purchased from XenoTech, LLC. (pooled preparations from 20 donors; Kansas City, KS). Human hepatic microsomes from five individuals (HG32, HH94, HH81, HH74, and HH31), a pooled preparation from 150 donors, and microsomes prepared from insect cell lines expressing CYP1A2, 2A6, 2B6, 2C8, 2C9, 2C19, 2D6, 2E1, and 3A4 were purchased from BD Gentest. Insect microsomes expressing only NADPH-P450 oxidoreductase and cytochrome b5 were also used as control. These enzymes were stored at −80°C until use.
as §1, §3
Kinetic studies were performed using microsomes from five human livers (HG32, HH94, HH81, HH74, and HH31), cDNA-expressed CYP isoforms, or pooled human hepatic cytosol. In determining kinetic parameters, FT concentration ranged from 0.03 to 10 mmol/L. All reactions were performed in a linear range of 5-FU formation with respect to protein or CYP concentrations and incubation time.
Intrinsic clearance (CLint) was calculated as a ratio of V/S where V and S were the metabolite formation rate and the concentration of a probe substrate for CYP isoform, respectively, when the substrate concentration was well below the Km value. The RAF for each CYP isoform was calculated according to equation (3) (Venkatakrishnan et al. [2000]). [drawing 3] (3) n = 1A2, 2A6, 2C19, or 2E1.
The contribution of CYPn to the metabolism of R- and S-FT at their concentration of 30 μmol/L was subsequently calculated using equation (4). [drawing 4] (4) VCYPn = 5-FU formation rate in cDNA-expressed CYPn.

[4] = design: method as in Damle et al. [2001]; conditions: after oral administration; ref Damle et al. [2001]; cited from earlier work
[5] = Effects of CYP-selective inhibitors on 5-FU formation from FT enantiomers in pooled human hepatic microsomes; type: in vitro ADME; conditions: pooled human hepatic microsomes; for effect on 5-FU formation from R-FT (in words): furafylline 25, quinidine 1, ketoconazole 1 μmol/L; for effect on 5-FU formation from S-FT (in words): furafylline 25, ticlopidine 20, quinidine 1, ketoconazole 1 μmol/L
Protocol: as §1, §2, §3, §4

[6] = Enantioselective conversion of FT to 5-FU in human hepatic S9 with CYP and TPase inhibitors; type: in vitro ADME; conditions: FT enantiomer 0.1 mmol/L, 1-aminobenzotriazole 1 mmol/L, TPI 10 μmol/L
Protocol: Insect microsomes expressing only NADPH-P450 oxidoreductase and cytochrome b5 were also used as control. These enzymes were stored at −80°C until use.
as §1
as §2, with “In inhibition assays, FT enantiomers were used at the concentrations of 30 μmol/L.” left out
as §5

Compound: N[C@@H]1C[C@H]1c1ccccc1 (racemic) [tranylcypromine, tranylcypromine hydrochloride]
inhibition at 15 min ([1]; pooled human hepatic microsomes, R-FT 30 μmol/L, tranylcypromine 5 μmol/L, diethyldithiocarbamate 100 μmol/L): ~90%
inhibition at 15 min ([2]; pooled human hepatic microsomes, S-FT 30 μmol/L, tranylcypromine 5 μmol/L, diethyldithiocarbamate 100 μmol/L): ~90%

Compound: Cl.N=C1CCCN1Cc1[nH]c(=O)[nH]c(=O)c1Cl [TPI, 5-chloro-6-(2-iminopyrrolidin-1-yl) methyl-2, 4 (1H,3H)-pyrimidinedione hydrochloride]
effect on 5-FU formation from R-FT (in words) [6]: only a minor effect; also recorded: only a slight effect
effect on 5-FU formation from S-FT (in words) [6]: only a minor effect; also recorded: not observed

Compound: Nn1nnc2ccccc21 [1-aminobenzotriazole, 1-Aminobenzotriazole]
effect on 5-FU formation from R-FT (in words) [6]: markedly reduced; also recorded: strong inhibitory effect
effect on 5-FU formation from S-FT (in words) [6]: markedly reduced; also recorded: strong inhibitory effect

Second part, led by results:

activity for the enantioselective metabolism of FT (in words) [3]: negligible activity
CYP contribution (CYP2A6): over 85%
Compound: O=c1[nH]c(=O)n(C2CCCO2)cc1F (centres unmarked) [FT, 5-fluoro-1-(2-tetrahydrofuryl)-2, 4 (1H, 3H)-pyrimidinedione, reference compound]
oral bioavailability [4]: approximately 100%

inhibition at 15 min [1]: 27%
inhibition at 15 min [2]: 34%
amount of 5-FU formed from R-FT, % of the control value ([5]; R-FT 30 μmol/L, diethyldithiocarbamate 100 μmol/L): 73 % of the control value
amount of 5-FU formed from S-FT, % of the control value ([5]; S-FT 30 μmol/L, diethyldithiocarbamate 100 μmol/L): 64 % of the control value
Compound: CCN(CC)C(=S)S [diethyldithiocarbamate, sodium diethyldithiocarbamate]

effect on 5-FU formation from R-FT (in words) ([5]; R-FT 30 μmol/L): no effect
effect on 5-FU formation from S-FT (in words) ([5]; S-FT 30 μmol/L): no effect
Compound: CC(=O)N1CCN(c2ccc(OCC3COC(Cn4ccnc4)(c4ccc(Cl)cc4Cl)O3)cc2)CC1 (centres unmarked) [ketoconazole]

effect on 5-FU formation from R-FT (in words) ([5]; R-FT 30 μmol/L): no effect
effect on 5-FU formation from S-FT (in words) ([5]; S-FT 30 μmol/L): no effect
Compound: Cc1nc2c([nH]1)c(=O)n(C)c(=O)n2Cc1ccco1 [furafylline]
